{"source": "patent US20250177351A1", "about": "“ISOINDOLINE COMPOSITIONS AND METHODS FOR TREATING NEURODEGENERATIVE DISEASE” (Cognition Therapeutics, Inc., priority 2022, published 2025)", "key": {"CSF proteins [1]": {"test_system": "CSF proteins", "test": "Phase 1b/2a trial: CSF protein expression by LC/MSMS", "assay_type": "in vivo, human", "protocol": "(§1) COG0102 clinical trial: This trial (ClinicalTrials.gov NCT02907567) was a randomized, double-blind, placebo-controlled clinical trial in mild to moderate Alzheimer's patients (MMSE 18-26) (See FIG. 1 for clinical trial design). The trial was conducted at six sites in Australia. Patients were randomized into placebo (n=5) or CT1812-treated groups: 90 mg (n=4), 280 mg (n=5) or 560 mg (n=5) and treated once daily for 28 days. Clinical chemistry was done at Sydpath (Sydney, AU). Pharmacokinetics were done at CPR Pharma Services (Adelaide, AU). Cerebrospinal fluid samples were taken at screening and day 21-28 of treatment and aliquoted. Plasma samples were taken at screening or Day 1 (one sample) and day 14-28, then spun down to separate plasma and aliquoted. One set of CSF samples was analyzed for Alzheimer's disease biomarkers; protein measurements (Aβ42, Aβ40, total tau, tau phosphorylated at threonine 181 (phosphorylated tau), NFL and neurogranin) were performed using commercially available ELISA assays from Fujirebio according to the manufacturer's instructions (INNOTEST β-AMYLOID(1-42), INNOTEST β-AMYLOID(1-40), INNOTEST hTau Ag, INNOTEST PHOSPHO-TAU(181P), Uman Diagnostics NFL assay). Neurogranin was measured with a sandwich ELISA method using antibodies Ng2 and Ng22 developed at the University of Gotteborg (Kvartsberg et al. 2015). Identical aliquots of CSF, and plasma were analyzed for protein expression changes via LC/MSMS at Caprion (see below).\nLC MSMS biomarker discovery: Matched screening and day 28 plasma and CSF samples were analyzed by LC/MSMS at Caprion Biosciences Inc. Plasma was depleted of high and medium abundance proteins using a commercial immunoaffinity column, IgY14-Supermix (Sigma). CSF was depleted of only 14 high abundance proteins using MARS-14 (Agilent). All samples were digested with trypsin and plasma samples were fractionated by strong cation exchange chromatography (3 fractions). Both CSF and plasma samples were analyzed using a NanoAcquity UPLC coupled to a Q Exactive MS. […] The 12 most intense peaks per survey scan with charge states 2-8 fragmented and scanned with a mass range from 200 to 2000 m/z at a resolution of 17,500. Raw spectrometer data files for each LC-MS run were aligned independently using Elucidator software (Rosetta Biosoftware). The MS/MS spectra were matched to corresponding peptide sequences found in the Uniprot Human protein database (January 2017) using Mascot software, allowing for up to 2 missed cleavages, a peptide tolerance of 20 ppm, and an MS/MS tolerance of 0.05 Da. Outlier detection was performed by determining the average log-intensity of all isotope groups (IG) over injection order for all samples. Samples with an average value greater than 2 standard deviations from the mean were flagged for investigation. Following data transformation and normalization, expression analysis of the identified isotope groups was performed and the statistical significance of each comparison was assessed with a parametric, linear mixed model (LMM) and a non-parametric Wilcoxon ranked test (ranked p-values). Expression analysis was also performed at the peptide and protein levels, which used the same methodology as above, but applied to peptide/protein intensities, derived by rolling-up the corresponding isotope group intensities. Isotope groups not detected in at least half of the samples in either of the two groups being compared were not used for the roll-up.\nHeat map analysis: The difference in protein abundance between day 28 and baseline for each sample was normalized for graphical comparison by converting to z-score. First, the mean and standard deviation (SD) of day 28—baseline values were calculated across all paired samples for each protein. Then, for each patient's paired sample fold change, the difference from the mean was determined and divided by the SD to derive the z-score. […]"}, "CYP isoenzymes": {"test_system": "CYP isoenzymes", "test": "Drug interaction studies"}, "CSF proteins [2]": {"test_system": "CSF proteins", "test": "CSF proteomics by tandem-mass tag mass spectrometry (TMT-MS), SPARC trial", "assay_type": "in vivo, human", "text": "A stringent filter was used to reduce noise. […] Samples were acquired from placebo and the drug and interventional cohort. Using biomarker differential-expression analysis, proteins that were differentially expressed between drug and placebo cohorts were identified (p<0.05)."}, "[3]": {"test_system": "CSF biomarkers (Aβ42, Aβ40, total tau, phosphorylated tau, NFL and neurogranin)", "test": "Phase 1b/2a trial: CSF Alzheimer's disease biomarkers by ELISA", "assay_type": "in vivo, human", "settings": "AD patients, before and after treatment", "protocol": "as §1, with “Plasma samples were taken at screening or Day 1 (one sample) and day 14-28, then spun down to separate plasma and aliquoted.” left out"}, "[4]": {"settings": "AD patients treated at least 6 months, p<0.05"}}, "data": [{"smiles": "CC(C)(C)Oc1cc(CCC(C)(C)N2Cc3ccc(S(C)(=O)=O)cc3C2)ccc1O", "note": "[CT1812]", "values": [{"measurement": "Synaptotagmin-1 expression in CSF, decrease in CT1812-treated vs. placebo", "setting": "CSF proteins [1]; AD patients, 28 days", "value": 63, "unit": "%"}, {"measurement": "number of CSF proteins changed differentially vs placebo", "setting": "CSF proteins [1]; AD patients, 28 days, p<0.05", "value": 30}, {"measurement": "FC (Treated) AFM", "setting": "CSF proteins [1]; CSF, 28 days vs screening", "value": 0.94}, {"measurement": "FC (Treated) ANGPTL2", "setting": "CSF proteins [1]; CSF, 28 days vs screening", "value": 0.80}, {"measurement": "FC (Treated) CNTN1", "setting": "CSF proteins [1]; CSF, 28 days vs screening", "value": 0.97}, {"measurement": "FC (Treated) EFNB1", "setting": "CSF proteins [1]; CSF, 28 days vs screening", "value": 0.97}, {"measurement": "FC (Treated) EPHA4", "setting": "CSF proteins [1]; CSF, 28 days vs screening", "value": 0.94}, {"measurement": "FC (Treated) MBL2", "setting": "CSF proteins [1]; CSF, 28 days vs screening", "value": 0.75}, {"measurement": "FC (Treated) NPPC", "setting": "CSF proteins [1]; CSF, 28 days vs screening", "value": 0.90}, {"measurement": "FC (Treated) P4HB", "setting": "CSF proteins [1]; CSF, 28 days vs screening", "value": 1.10}, {"measurement": "FC (Treated) RBP4", "setting": "CSF proteins [1]; CSF, 28 days vs screening", "value": 0.82}, {"measurement": "FC (Treated) ROBO1", "setting": "CSF proteins [1]; CSF, 28 days vs screening", "value": 0.96}, {"measurement": "FC (Treated) SEMA3F", "setting": "CSF proteins [1]; CSF, 28 days vs screening", "value": 1.40}, {"measurement": "FC (Treated) SERPINA4", "setting": "CSF proteins [1]; CSF, 28 days vs screening", "value": 0.88}, {"measurement": "FC (Treated) SMPDL3B", "setting": "CSF proteins [1]; CSF, 28 days vs screening", "value": 0.97}, {"measurement": "FC (Treated) SYT1", "setting": "CSF proteins [1]; CSF, 28 days vs screening", "value": 0.78}, {"measurement": "FC (Treated) TPII", "setting": "CSF proteins [1]; CSF, 28 days vs screening", "value": 0.90}, {"measurement": "FC (Treated) YWHAB", "setting": "CSF proteins [1]; CSF, 28 days vs screening", "value": 0.90}, {"measurement": "FC (Treated vs. Placebo) AFM", "setting": "CSF proteins [1]; CSF, 28 days, p-value 0.002, rank p-value 0.003", "value": 0.84}, {"measurement": "FC (Treated vs. Placebo) SYT1", "setting": "CSF proteins [1]; CSF, 28 days, p-value 0.011, rank p-value 0.011", "value": 0.63}, {"measurement": "FC (Treated vs. Placebo) RBP4", "setting": "CSF proteins [1]; CSF, 28 days, p-value 0.018, rank p-value 0.011", "value": 0.81}, {"measurement": "FC (Treated vs. Placebo) MBL2", "setting": "CSF proteins [1]; CSF, 28 days, p-value 0.020, rank p-value 0.006, FC>10 may be artifact", "value": ">10"}, {"measurement": "FC (Treated vs. Placebo) TNC", "setting": "CSF proteins [1]; CSF, 28 days, p-value 0.029, rank p-value 0.011", "value": 0.91}, {"measurement": "FC (Treated vs. Placebo) EFNB1", "setting": "CSF proteins [1]; CSF, 28 days, p-value 0.029, rank p-value 0.034", "value": 0.93}, {"measurement": "FC (Treated vs. Placebo) EPHA4", "setting": "CSF proteins [1]; CSF, 28 days, p-value 0.035, rank p-value 0.076", "value": 0.93}, {"measurement": "FC (Treated vs. Placebo) MDGA2", "setting": "CSF proteins [1]; CSF, 28 days, p-value 0.036, rank p-value 0.106", "value": 0.71}, {"measurement": "FC (Treated vs. Placebo) YWHAB", "setting": "CSF proteins [1]; CSF, 28 days, p-value 0.038, rank p-value 0.148", "value": 0.81}, {"measurement": "FC (Treated vs. Placebo) ROBO1", "setting": "CSF proteins [1]; CSF, 28 days, p-value 0.042, rank p-value 0.106", "value": 0.82}, {"measurement": "FC (Treated vs. Placebo) TPII", "setting": "CSF proteins [1]; CSF, 28 days, p-value 0.044, rank p-value 0.076", "value": 0.87}, {"measurement": "FC (Treated vs. Placebo) CD14", "setting": "CSF proteins [1]; CSF, 28 days, p-value 0.046, rank p-value 0.034", "value": 1.20}, {"measurement": "FC (Treated vs. Placebo) SERPINA4", "setting": "CSF proteins [1]; CSF, 28 days, p-value 0.047, rank p-value 0.020", "value": 0.79}, {"measurement": "FC (Treated vs. Placebo) CNTN1", "setting": "CSF proteins [1]; CSF, 28 days, p-value 0.048, rank p-value 0.076", "value": 0.81}, {"measurement": "FC (Treated vs. Placebo) ANGPTL2", "setting": "CSF proteins [1]; CSF, 28 days, p-value 0.050, rank p-value 0.148", "value": 0.69}, {"measurement": "FC (Treated vs. Placebo) NPPC", "setting": "CSF proteins [1]; CSF, 28 days, p-value 0.060, rank p-value 0.020", "value": 0.91}, {"measurement": "interactions with CYP isoenzymes", "setting": "CYP isoenzymes", "value": "minor interactions"}, {"measurement": "CHI3L1 (YKL-40) in CSF vs placebo", "setting": "CSF proteins [2]; [4]", "value": "significantly decreased"}, {"measurement": "CLU (clusterin) in CSF vs placebo", "setting": "CSF proteins [2]; [4]", "value": "significantly decreased"}, {"measurement": "SMOC1 in CSF vs placebo", "setting": "CSF proteins [2]; [4]", "value": "significantly decreased"}, {"measurement": "number of significantly abundant proteins in CSF, CT1812 vs placebo", "setting": "CSF proteins [2]; N=18, p<0.05", "value": 326}, {"measurement": "biomarker levels (Aβ, tau, NFL) in CSF", "setting": "[3]", "value": "remain unchanged"}]}]}
